Results published in the supplement of paper PMC4862054.

What was measured:
Settings in all cases: incubation time: 72 h
[1] = system: MDA-MB-453; test: normalised viability (% of control), CellTiter-Blue; higher = more viable cells (about 100 = DMSO control)
Procedure, shortened: (§1)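 Vehicle (100) and a positive kill control (0) anchored the normalisation of each plate, and Z'-factor was used for quality control. Breast cancer cell lines in 20 µl suspension were incubated 72 h over compound in 5 µl medium in 384-well plates, followed by CellTiter-Blue at 560/590 nm. The value is normalised viability at a single listed concentration of the series.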

[2] = system: CAL-85-1; test: as above
Procedure, shortened: as §1

[3] = system: BT-549; test: as above
Procedure, shortened: as §1

[4] = system: MDA-MB-468; test: as above
Procedure, shortened: as §1

[5] = system: HDQ-P1; test: as above
Procedure, shortened: as §1

[6] = system: CAL-148; test: as above
Procedure, shortened: as §1

[7] = system: HCC1599; test: as above
Procedure, shortened: as §1

[8] = system: MFM-223; test: as above
Procedure, shortened: as §1

[9] = system: MDA-MB-436; test: as above
Procedure, shortened: as §1

[10] = system: DU-4475; test: as above
Procedure, shortened: as §1

[11] = system: Hs578T; test: as above
Procedure, shortened: as §1

[12] = system: MDA-MB-231; test: as above
Procedure, shortened: as §1

[13] = system: HCC1143; test: as above
Procedure, shortened: as §1

[14] = system: CAL-51; test: as above
Procedure, shortened: as §1

[15] = system: BT-474; test: as above
Procedure, shortened: as §1

[16] = system: HCC1937; test: as above
Procedure, shortened: as §1

[17] = system: CAL-85-1; test: normalised response (% of control), CellTiter-Glo; higher = more viable cells (100 = DMSO, 0 = benzethonium chloride kill control)
Procedure, shortened: (§2)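 For each plate, 0.1 % DMSO was set to 100 and a positive kill control to 0. Breast cancer cell lines (20 µl suspension) were seeded into 384-well plates already holding compound at 5 concentrations in 10-fold steps over a 10,000-fold range chosen per compound, and incubated for 72 h. CellTox Green fluorescence at 485/520 nm was read before CellTiter-Glo luminescence, which followed 10 min at room temperature. Each value is the normalised signal at one concentration.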

[18] = system: SK-BR-3; test: as above
Procedure, shortened: as §2

[19] = system: HDQ-P1; test: as above
Procedure, shortened: as §2

[20] = system: CAL-148; test: as above
Procedure, shortened: as §2

[21] = system: MCF-10A; test: as above
Procedure, shortened: as §2

[22] = system: MFM-223; test: as above
Procedure, shortened: as §2

[23] = system: DU-4475; test: as above
Procedure, shortened: as §2

[24] = system: HCC1143; test: as above
Procedure, shortened: as §2

[25] = system: BT-474; test: as above
Procedure, shortened: as §2

Molecule `CC[C@@H]1C(=O)OC[C@@H]1Cc1cncn1C` [Pilocarpine] has a normalised viability ([1]; 12 nM) of 118%, a normalised viability ([1]; 120 nM) of 93.5% and a normalised viability ([1]; 400 nM) of 100%. The normalised viability ([2]; 12 nM) was 98.1%, the normalised viability ([2]; 120 nM) was 98.3% and the normalised viability ([2]; 400 nM) was 101%. The normalised viability ([3]; 40 nM) was 95.5%, the normalised viability ([3]; 4000 nM) was 114% and the normalised viability ([3]; 40000 nM) was 100%. The normalised viability ([4]; 40 nM) was 95.2%, the normalised viability ([4]; 4000 nM) was 99% and the normalised viability ([4]; 40000 nM) was 109%. For the same molecule, the normalised viability ([5]; 12 nM) was 123%, the normalised viability ([5]; 120 nM) was 137% and the normalised viability ([5]; 400 nM) was 118%. It also gave a normalised viability ([6]; 12 nM) of 95.5%, a normalised viability ([6]; 120 nM) of 101% and a normalised viability ([6]; 400 nM) of 104%. For the same molecule, the normalised viability ([7]; 40 nM) was 104%, the normalised viability ([7]; 4000 nM) was 92.2% and the normalised viability ([7]; 40000 nM) was 92.8%. It also gave a normalised viability ([8]; 40 nM) of 96.4%, a normalised viability ([8]; 4000 nM) of 90.7% and a normalised viability ([8]; 40000 nM) of 63.7%. For the same molecule, the normalised viability ([9]; 40 nM) was 95.6%, the normalised viability ([9]; 4000 nM) was 95% and the normalised viability ([9]; 40000 nM) was 104%. For the same molecule, the normalised viability ([10]; 12 nM) was 103%, the normalised viability ([10]; 120 nM) was 92.1% and the normalised viability ([10]; 400 nM) was 107%. For the same molecule, the normalised viability ([11]; 40 nM) was 101%, the normalised viability ([11]; 4000 nM) was 102% and the normalised viability ([11]; 40000 nM) was 108%. The normalised viability ([12]; 40 nM) was 94.9%, the normalised viability ([12]; 4000 nM) was 116% and the normalised viability ([12]; 40000 nM) was 118%. For the same molecule, the normalised viability ([13]; 40 nM) was 87.5%, the normalised viability ([13]; 4000 nM) was 90.3% and the normalised viability ([13]; 40000 nM) was 88.4%. For the same molecule, the normalised viability ([14]; 12 nM) was 110%, the normalised viability ([14]; 120 nM) was 103% and the normalised viability ([14]; 400 nM) was 98.2%. It also gave a normalised viability ([15]; 40 nM) of 108%, a normalised viability ([15]; 4000 nM) of 158% and a normalised viability ([15]; 40000 nM) of 116%. For the same molecule, the normalised viability ([16]; 40 nM) was 109%, the normalised viability ([16]; 4000 nM) was 107% and the normalised viability ([16]; 40000 nM) was 97.4%.
With `Cn1cnc2c(F)c(Nc3ccc(Br)cc3Cl)c(C(=O)NOCCO)cc21` [Selumetinib] (1000 nM) the normalised response [17] was 107%, the normalised response [18] was 86.8% and the normalised response [19] was 63.8%. It also gave a normalised response [20] of 79.4%, a normalised response [21] of 37.6% and a normalised response [22] of 92.2%. It also gave a normalised response [23] of 4.56%, a normalised response [24] of 85.1% and a normalised response [25] of 67.8%.
In the case of `Cn1cc(C2=Nc3cc(NC(=O)C(N)C4CCCCC4)cc4c3C2=CNNC4=O)cn1` (stereo not given), the normalised viability ([1]; 3 nM) is reported as 96.7%, the normalised viability ([1]; 30 nM) is reported as 94.9% and the normalised viability ([1]; 100 nM) is reported as 72.4%. The normalised viability ([2]; 3 nM) was 89%, the normalised viability ([2]; 30 nM) was 78.3% and the normalised viability ([2]; 100 nM) was 90%. The normalised viability ([3]; 10 nM) was 80.9%, the normalised viability ([3]; 1000 nM) was 37.4% and the normalised viability ([3]; 10000 nM) was 18.6%. It also gave a normalised viability ([4]; 10 nM) of 112%, a normalised viability ([4]; 1000 nM) of 19.4% and a normalised viability ([4]; 10000 nM) of 10.4%. It also gave a normalised viability ([5]; 3 nM) of 104%, a normalised viability ([5]; 30 nM) of 102% and a normalised viability ([5]; 100 nM) of 106%. It also gave a normalised viability ([6]; 3 nM) of 88.3%, a normalised viability ([6]; 30 nM) of 93.5% and a normalised viability ([6]; 100 nM) of 94%. It also gave a normalised viability ([7]; 10 nM) of 94.6%, a normalised viability ([7]; 1000 nM) of 52.8% and a normalised viability ([7]; 10000 nM) of 42%. For the same molecule, the normalised viability ([8]; 10 nM) was 86.1%, the normalised viability ([8]; 1000 nM) was 57.3% and the normalised viability ([8]; 10000 nM) was 62.2%. It also gave a normalised viability ([9]; 10 nM) of 102%, a normalised viability ([9]; 1000 nM) of 70% and a normalised viability ([9]; 10000 nM) of 32.8%. It also gave a normalised viability ([10]; 3 nM) of 89.6%, a normalised viability ([10]; 30 nM) of 82.9% and a normalised viability ([10]; 100 nM) of 86.3%. It also gave a normalised viability ([11]; 10 nM) of 122%, a normalised viability ([11]; 1000 nM) of 35.1% and a normalised viability ([11]; 10000 nM) of 29.5%. The normalised viability ([12]; 10 nM) was 81.7%, the normalised viability ([12]; 1000 nM) was 85.6% and the normalised viability ([12]; 10000 nM) was 34.5%. The normalised viability ([13]; 10 nM) was 85.5%, the normalised viability ([13]; 1000 nM) was 57.2% and the normalised viability ([13]; 10000 nM) was 25.6%. For the same molecule, the normalised viability ([14]; 3 nM) was 104%, the normalised viability ([14]; 30 nM) was 87.2% and the normalised viability ([14]; 100 nM) was 93%. It also gave a normalised viability ([15]; 10 nM) of 103%, a normalised viability ([15]; 1000 nM) of 104% and a normalised viability ([15]; 10000 nM) of 98.9%. The normalised viability ([16]; 10 nM) was 98.2%, the normalised viability ([16]; 1000 nM) was 55.3% and the normalised viability ([16]; 10000 nM) was 22.7%.
